# Experimental data from paper PMC5435687 (Scientific Reports, 2017).
# Assays:
# SH-SY5Y cells = experiment: Aβ uptake under pharmacological inhibition of endocytic mechanisms (flow cytometry); format: cell-based, human; settings: for effect of CPZ on Aβ uptake: 5 µg/ml CPZ; for reduction in Aβ uptake with cytochalasin A or D: 10 µM cytochalasin A or 25 µg/ml cytochalasin D
# Method: Flow cytometry was used to quantify cellular uptake. […] For experiments including Trf B-27 was omitted, as outlined above. […] All samples were kept on ice until they were analysed on a Guava EasyCyte 8HT (Millipore, Darmstadt, Germany) that automatically retrieves samples from a 96-well plate. In order to exclude effects due to difference in delay time we used mixed order of analysis, loading only a few samples at a time with the remaining samples kept on ice. The cell counting gate was determined using propidium iodide (0.5 µM, not washed away prior to analysis) and calcein-AM (10 nM, 15 min staining) to distinguish live and dead cells, and for each sample 5,000 cells from within the live gate were counted and analysed. HF488, AlexaFluor488, EGFP and calcein-AM were excited by a 488 nm laser and their fluorescence was detected through a 525/30 nm filter. Propidium iodide and mRFP were excited by the 488 nm laser but detected through a 692/46 nm filter. HF647 and AlexaFluor647 were excited with a 635 nm laser and detected through a 661/19 nm filter. Compensation was performed to adjust for bleed through in experiments including mRFP. Mean cellular uptake was estimated as the average fluorescence intensity of all cells gated within the live region and all individual experiments were performed with three technical replicates (n = 3) unless else is stated. The average fluorescence intensity was baseline corrected by subtracting the signal for unstained cells.
# Endocytic mechanisms were also perturbed by treatment of cells with pharmacological inhibitors. Stock solutions of cytochalasin A, cytochalasin D, dynasore, wortmannin and IPA-3 were prepared in DMSO and diluted in serum-free cell culture media supplemented with 30 mM HEPES on the day of the experiment. The final DMSO concentration added to the cells was kept <0.1% and matched for the control. […] The cells were centrifuged 1000 * g for 5 min at 4 °C, washed 3x with ice-cold serum-free medium, followed by detachment and immediate flow cytometry analysis, as detailed above. […] Only the live cells were included in the analysis. Trf was used as a positive control for clathrin-mediated endocytosis. Due to the rapid uptake and recycling of internalized Trf we adopted an optimized protocol with sufficiently short Trf incubation times. First, to remove the quantities of membrane-bound Trf that originate from the serum component of the complete culture medium the cells were washed 3x in serum-free medium. The cells were then subjected to the inhibitors as described above and thereafter exposed to a 5 min pulse of 5 µg/ml Trf. To remove externally bound fluorescently labelled Trf the cells were thereafter washed (3x/2 min) in ice-cold acidic buffer (0.1 M Glycine-HCl buffer pH 2.5 with 150 mM NaCl)[35] whilst kept on ice. The cells were then harvested for flow cytometry analysis, and analysed one sample at a time with mixed order of analysis whilst keeping the remaining samples on ice.
# [1] = SDS-PAGE of peptide solutions, band quantification (monomer fraction); format: physicochemical; settings: 1 µM HF488-labelled peptide in cell culture medium after HFIP pre-treatment; NuPAGE 4–12% Bis-Tris gel, fluorescence scan, ImageJ
# Method: The lyophilized Aβ peptide powders were dissolved in hexafluoro-2-propanol to disrupt any aggregates[26] and monomerize the peptide. The solutions were vortexed briefly and aliquoted at 4 °C. The solvent in each aliquot was evaporated at 37 °C for 60 min using a RVC 2–18 CD Rotational Vacuum concentrator (Martin Christ, Germany). The remaining peptide films were snap frozen in liquid nitrogen and kept at −80 °C until further use. For concentration determinations the peptide film was dissolved in 1% ammonium hydroxide (v/v) and the absorption of the dye label was measured on a Cary 4000 UV-Vis Spectrophotometer (Agilent Technologies, Santa Clara, CA, US). Extinction coefficients of 70,000 M^−1cm^−1 at 504 nm and 250 000 M^−1cm^−1 at 649 nm was used for the HF488 and HF647 dye labels, respectively, according to the information provided by the manufacturer. Prior to each experiment one peptide film was dissolved in a small volume 1% ammonium hydroxide (v/v) and diluted with cell culture medium supplemented with 30 mM HEPES. […] The HF488 dye was excited by a 488 nm laser and emission detected through a 520/40 nm filter. After background correction, the gel bands corresponding to monomer, dimer and trimer species were quantified in ImageJ (NIH, Bethesda, Maryland, US) by integrated intensity of the respective bands.
# [2] = 1 µM HF488-labelled Aβ 1 h, 4 independent experiments in triplicate
# [3] = 30 min pre-incubation, 1 µM Aβ 1 h, n = 3
Substance,effect of CPZ on Aβ uptake (SH-SY5Y cells; [2]),"reduction in Aβ uptake with IPA-3 and wortmannin (SH-SY5Y cells; 10 µM IPA-3 or 25 nM wortmannin, 30 min pre-incubation, 1 µM Aβ 1 h, n = 3)",reduction in Aβ uptake with cytochalasin A or D (SH-SY5Y cells; [3]),monomer fraction by SDS-PAGE band intensities [1] [%],"effect of dynasore on Aβ uptake (SH-SY5Y cells; 80 µM dynasore, 30 min pre-incubation, 1 µM HF488-labelled Aβ 1 h, 4 independent experiments in triplicate, ANOVA with Bonferroni)"
"Aβ(1–40): Synthetic 40 residue amyloid-β peptide conjugated to HiLyte Fluor HF488 (or HF647) at the N-terminus, from Anaspec",reductions,~ 50%,~ 30%,84,–
"Aβ(1–42): Synthetic 42 residue amyloid-β peptide conjugated to HiLyte Fluor HF488 (or HF647) at the N-terminus, from Anaspec",impaired to a greater extent than that of Aβ(1–40),–,~ 70%,86,statistically significantly reduced
